Source: patent US20020037872A1, “N6 heterocyclic 5' modified adenosine derivatives” (CV Therapeutics, Inc., priority 1999, published 2002)
pKi: −log10 of the molar value.

Experiments:
A1 receptor = molecular target: T1, A1 receptor (Mesocricetus auratus, UniProt A0A1U8BVR4); assay: Competitive binding assay, DDT1 cell membranes, [3H]CCPA; parameters: species or system hamster; details: [3H]CCPA 2 nM, DDT1 cell membranes; read-out: Ki-DDT1 cell membrane
T1 construct: endogenous in cells; host or cells: DDT1 (DDT1 MF-2) hamster vas deferens smooth muscle cells
T1 sequence (A0A1U8BVR4 1-326): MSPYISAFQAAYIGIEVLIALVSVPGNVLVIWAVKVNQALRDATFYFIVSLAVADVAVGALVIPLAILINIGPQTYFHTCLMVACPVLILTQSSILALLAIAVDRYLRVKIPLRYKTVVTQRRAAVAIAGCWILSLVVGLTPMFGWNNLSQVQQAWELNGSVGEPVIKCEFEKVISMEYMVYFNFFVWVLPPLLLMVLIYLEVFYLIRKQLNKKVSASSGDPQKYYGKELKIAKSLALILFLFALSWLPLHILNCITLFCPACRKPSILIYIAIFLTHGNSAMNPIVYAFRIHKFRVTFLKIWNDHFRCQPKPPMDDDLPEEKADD
Description: Cells were subcultured twice weekly by dispersion in Hank's Balanced Salt Solution (HBSS) without the divalent cations and containing 1 mM EDTA. The cells were then seeded in growth medium at a density of 1.2×10^5 cells per plate and experiments were performed 4 days later at approximately one day preconfluence.
(§1) Attached cells were washed twice with HBSS (2×10 ml), scraped free of the plate with the aid of a rubber policeman in 5 ml of 50 mM Tris-HCI buffer pH 7.4 at 4° C. and the suspension homogenized for 10 s. The suspension was then centrifuged at 27,000×g for 10 min. The pellet was resuspended in homogenization buffer by vortexing and centrifuged as described above. The final pellet was resuspended in 1 vol of 50 mM Tris-HCI buffer pH 7.4 containing 5 mM MgCl2 for A1 AdoR assays. For the [^35S]GTPγS binding assay the final pellet was resuspended in 50 mM Tris-HCI pH 7.4 containing 5 mM MgCl2, 100 mM NaCl and 1 mM dithiothreitol. This membrane suspension was then placed in liquid nitrogen for 10 min, thawed and used for assays.
Competitive Binding Assay Pig striatum were prepared by homogenation in 50 mM Tris buffer (5× volume of tissue mass pH=7.4). After centrifilgation at 19,000 rpm for 25 minutes at 4° C., the supernatant was discarded, and the process was repeated twice. Compositions of this invention were assayed to determine their affinity for the A1 receptor in a pig striatum membrane prep or a DDT, membrane prep. Briefly, 0.2 mg of pig striatal membranes or DDT, cell membranes were treated with adenosine deaminase and 50 mM Tris buffer (pH=7.4) followed by mixing. To the pig membranes was added 2 μL of serially diluted DMSO stock solution of the compounds of this invention at concentrations ranging from 100 microM to 10 nM. The control received 2 microL of DMSO alone, then the antagonist [^3H] 8-cyclopentylxanthine (CPX) for pig striatum or the agonist [^3H] 2-chloro-6-cyclopentyladenosine (CCPA) for DDT, membranes in Tris buffer (50 mnM, pH of 7.4) was added to achieve a final concentration of 2 nM. After incubation at 23 C for 2 h, the solutions were filtered using a membrane harvester using multiple washing of the membranes (3×). The filter disks were counted in scintillation cocktail affording the amount of displacement of triated CPX or by the competitive binding compositions of this invention. In the case of the DDT1 cell membranes, some of the determinations of binding affinity (Ki) were made in the presence of Gpp(NH)p as noted in Table 1 (note: Gpp(NH)p shifts the receptor to a low affinity form). Greater than a 5 point curve was used to generate Ki's and the number of experiments is indicated in the column marked in Table 1 below.

A1 adenosine receptor [1] = molecular target: T2, A1 adenosine receptor (Mesocricetus auratus, UniProt A0A1U8BVR4); assay: [35S]GTPγS binding assay, A1-agonist stimulated; assay type: biochemical, hamster; details: agonist stimulated [35S]GTPγS binding, CPA = 100%
T2 construct: endogenous in cells; host or cells: DDT1 (DDT1 MF-2) hamster vas deferens smooth muscle cells
T2 sequence (A0A1U8BVR4 1-326): T1 sequence (A0A1U8BVR4 1-326)
Description: as §1, with “for assays. The protein content was determined by the method of Bradford (1976) using bovine serum albumin as standard.” for “for assays.”
A1-agonist stimulated [^35S]GTPγS binding was determined by a modification of the method described by Giersckik et al. (1991) and Lorenzen et al. (1993). […] Nonspecific binding was determined by the addition of 10 μM GTPγS. […] Previous reports have shown that agonist stimulated [^35S]GTPγS binding was dependent on the presence of GDP (Gierschik et al., 1991; Lorenzen et al., 1993; Traynor & Nahorski, 1995). […] In saturation experiments, 0.5 nM [^35S]GTPγS was incubated with 0.5-1000 nM GTPγS. At the end of the incubation, each suspension was filtered and the retained radioactivity determined as described above.

A1 adenosine receptor [2] = molecular target: T2, A1 adenosine receptor; assay: cAMP assay (SPA) in DDT1 cells, forskolin-induced cAMP; assay type: cell-based, hamster; details: normalized to full agonist CPA, 5 μM forskolin, 50 μM rolipram; for Emax: 10 min
Description: A scintillation proximity assay (SPA) using rabbit antibodies directed at cAMP using an added tracer of adenosine 3′,5′-cyclic phosphoric acid 2′-O-succinyl-3-[^125I]iodotyrosine methyl ester and fluoromicrospheres containing anti-rabbit specific antibodies as described by Amersham Pharmacia Biotech (Biotrak cellular communication assays). Briefly, DDT1 cells were cultured in clear bottomed 96 well microtiter plates with opaque wells at concentrations between 10^4 to 10^6 cells per well in 40 μl of HBSS at 37° C. (5% CO2 and 95% humidity). The partial or full A1 agonists (5 μl) of this invention were incubated at various concentrations with the DDT1 cells in the presence of rolipram (50 μM), and 5 μM forskolin for 10 min at 37° C. The cells were immediately lysed by treatment 5 μl of 10% dodecyltrirnethylammonium bromide followed by shaking using rnicroplate shaker. After incubation of the plate for 5 minutes, an imnuunoreagent solution (150 μl containing equal volumes of tracer, antiserum, and SPA fluorospheres) was added to each well followed by sealing the plate. After 15-20 h at 23° C., the amount of bound [^125] cAM to the fluoromicrospheres was determined by counting in a microtitre plate scintillation counter for 2 minutes. Comparison of counts with standard curves generated for cAMP using a similar protocol afforded the cAMP present after cell lysis.

Row | SMILES | pKi (A1 receptor) | Emax (A1 adenosine receptor [1]) [%] | Emax (A1 adenosine receptor [2]) [%] | GTPγS (A1 adenosine receptor [1]) [%] | cAMP (A1 adenosine receptor [2]) [%]
1 | CCOC(=O)C1C2C=CC(C2)C1NC(=O)OCC1OC(n2cnc3c(N[C@@H]4CCOC4)ncnc32)C(O)C1O (stereo partly drawn) [Compound 35, Ethyl 3-{[5-{6-[(3R)oxolan-3-yl)amiinolpurin-9-yl}(3S,2R,4R,5R)-3,4-dihydroxyoxolan-2-yl)methoxylcarbonylamino)(2S,3R)bicylo[2.2.]hept-5-ene2-carboxylate] | 5.99 | 52 | -4 | – | –
2 | CCOC(=O)C1C2CCC(C2)C1NC(=O)OCC1OC(n2cnc3c(N[C@@H]4CCOC4)ncnc32)C(O)C1O (stereo partly drawn) [Compound 36, Ethyl 3-{[5-{6-[(3R)oxolan-3-yl)aminolpurin-9-yl}(3S,2R,4R,5R)-3,4-dihydroxyoxolan-2-yl)methoxylcarbonylamino}(2S,3R)bicylo[2.2.1]heptane-2-carboxylate] | 5.82 | 41 | 10 | – | –
3 | O=C(NC1CCCC1OCc1ccccc1)OCC1OC(n2cnc3c(N[C@@H]4CCOC4)ncnc32)C(O)C1O (stereo partly drawn) [Compound 37] | 5.37 | – | – | 30 | −6
4 | O=C(NC1CCC1)OCC1OC(n2cnc3c(N[C@@H]4CCOC4)ncnc32)C(O)C1O (stereo partly drawn) [Compound 39, [(5-{6[((3R)oxolan-3-yl)amino}purin-9-yl}(3S,2R,4R,5R)3,4-dihydroxyoxolan-2-yl)methoxy]-N-cyclobutylcarboxaniide] | 6.35 | 67 | 45 | – | –
5 | C=CCNC(=O)OC[C@H]1O[C@@H](n2cnc3c(N[C@@H]4CCOC4)ncnc32)[C@H](O)[C@@H]1O [Compound 41, [(5-{6[((3R)oxolan-3-yl)amino]purin-9-yl}(3S, 2R, 4R, 5R)-3,4-dihydroxyoxolan-2-yl)methoxy]-N-prop2-enylcarboxamide] | 6.18 | 48 | 17 | – | –
6 | CCOC(=O)CCNC(=O)OCC1OC(n2cnc3c(N[C@@H]4CCOC4)ncnc32)C(O)C1O (stereo partly drawn) [Compound 42] | 5.50 | 47 | 16 | – | –
7 | COC(=O)CNC(=O)OCC1OC(n2cnc3c(N[C@@H]4CCOC4)ncnc32)C(O)C1O (stereo partly drawn) [Compound 43] | 5.77 | 53 | 28 | – | –
8 | OC1C(COC(=S)NC2CCCC2OCc2ccccc2)OC(n2cnc3c(N[C@@H]4CCOC4)ncnc32)C1O (stereo partly drawn) [Compound 56] | 5.91 | – | – | 52 | 43
9 | O=C(N[C@H]1CCC[C@@H]1O)OC[C@H]1O[C@@H](n2cnc3c(N[C@@H]4CCOC4)ncnc32)[C@H](O)[C@@H]1O [Compound 61, {(5-{6[((3R)oxolan-3-yl)amino]purin-9-yl}(3S,2R,4R,5R)-3,4dihydroxyoxolan-2-yl)methoxy]-N-((1S,2S)-2-hydroxycyclopentyl)carboxamide] | 5.80 | 59 | 53 | – | –
10 | O=C(NC1CCCC1O)OCC1OC(n2cnc3c(N[C@@H]4CCOC4)ncnc32)C(O)C1O (stereo partly drawn) [Compound 62] | 5.66 | 42 | 23 | – | –
11 | O=C(NC1CCCC1)OCC1OC(n2cnc3c(NC4CCOC4)nc(Cl)nc32)C(O)C1O [Compound 69, [(5-16-[((3R)oxolan-3-yl)amino]-2-chloropurin-9-yl}(3S,2R,4R,5R)-3,4-dihydroxyoxolan-2-yl)methoxy]-N-cyclopentylcarboxamide] | 6.42 | 50 | 18 | – | –
